Laboratory results published in patent publication US10065971B2 (priority 2014, dated 2018).
Structures can show the parent of a compound that is named as a salt.

Biological target: human σ1 receptor (Homo sapiens, UniProt Q99720)
Experiment: biochemical
Parameters: μ and σ1 dual binding: scale not given here
Settings: combined class from Ki at human σ1 receptor (A1) and Ki at human μ-opioid receptor (A2); radioligand binding
Description: Biological Activity Pharmacological Study Human σ1 Receptor Radioligand Assay
The assay was carried out with 7 μg of membrane suspension, 5 nM of [^3H](+)-pentazocine in either absence or presence of either buffer or 10 μM Haloperidol for total and non-specific binding, respectively. Binding buffer contained Tris-HCl 50 mM at pH 8. Plates were incubated at 37° C. for 120 minutes. After the incubation period, the reaction mix was then transferred to MultiScreen HTS, FC plates (Millipore), filtered and plates were washed 3 times with ice-cold 10 mM Tris-HCL (pH7.4). Filters were dried and counted at approximately 40% efficiency in a MicroBeta scintillation counter (Perkin-Elmer) using EcoScint liquid scintillation cocktail

Chain of human σ1 receptor (Q99720 whole entry): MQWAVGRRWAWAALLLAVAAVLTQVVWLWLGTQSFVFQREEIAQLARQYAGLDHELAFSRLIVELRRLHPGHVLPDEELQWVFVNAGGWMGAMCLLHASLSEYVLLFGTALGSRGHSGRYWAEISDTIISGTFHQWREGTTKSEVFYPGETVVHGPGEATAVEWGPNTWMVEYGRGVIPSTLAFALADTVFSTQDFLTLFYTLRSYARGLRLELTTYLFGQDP

Compound | μ and σ1 dual binding
CC1CN(C(=O)c2ccccc2)CC2(CCN(CCc3cccc(C(F)(F)F)n3)CC2)O1 (stereo not shown) [Example 38, (2-methyl-9-(2-(6-(trifluoromethyl)pyridin-2-yl)ethyl)-1-oxa-4,9-diazaspiro[5.5]undecan-4-yl)(phenyl)methanone dihydrochloride] | ++
COc1cccnc1CCN1CCC2(CC1)CN(C(=O)c1ccccc1F)CC1(CC1)O2 [Example 130, 12-[(2-fluorophenyl)carbonyl]-8-(2-(3-methoxypyridin-2-yl)ethyl)-4-oxa-8,12-diazadispiro[2.1.5.3]tridecane] | ++
CC1CN(C(=O)c2ccccn2)CC2(CCN(CCc3ncccc3Cl)CC2)O1.Cl (stereo not shown) [Example 48, (9-(2-(3-chloropyridin-2-yl)ethyl)-2-methyl-1-oxa-4,9-diazaspiro[5.5]undecan-4-yl)(pyridin-2-yl)methanone hydrochloride] | ++
Cl.O=C(Cc1ccccc1)N1CCOC2(CCN(CCc3ccccc3)CC2)C1 [Example 4, 1-(9-phenethyl-1-oxa-4,9-diazaspiro[5.5]undecan-4-yl)-2-phenylethanone hydrochloride] | ++

Same assay, conditions: combined class from Ki at human σ1 receptor (A1) and Ki at human μ-opioid receptor (A2); radioligand binding; read-out: μ and σ1 dual binding

Compound | Ki
CC1CN(C(=O)c2ccccc2)CC2(CCN(CC(=O)N3CCOCC3)CC2)O1 (stereo not shown) [Example 89, 2-(4-benzoyl-2-methyl-1-oxa-4,9-diazaspiro[5.5]undecan-9-yl)-1-morpholinoethanone hydrochloride] | > 500 nM
CC1CN(C(=O)c2ccc(F)cc2F)CC2(CCN(CCc3ncccc3F)CC2)O1 (stereo not shown) [Example 148, (2,4-difluorophenyl)(9-(2-(3-fluoropyridin-2-yl)ethyl)-2-methyl-1-oxa-4,9-diazaspiro[5.5]undecan-4-yl)methanone] | > 500 nM
CC1CN(C(=O)c2ccccc2)CC2(CCN(CC(=O)N3CCCCC3)CC2)O1 (stereo not shown) [Example 90, 2-(4-benzoyl-2-methyl-1-oxa-4,9-diazaspiro[5.5]undecan-9-yl)-1-(piperidin-1-yl)ethanone hydrochloride] | > 500 nM
